Some results are limits rather than exact numbers.

What is called IC50 is the concentration that inhibits the measured activity by half.

Holding throughout (format): cell-based
Assay [1] addresses T1, EGFR WT (Ba/F3 cells) (Homo sapiens, UniProt P00533).
T1 construct: expressed in transfected cells; host or cells: Ba/F3 (murine pro-B cells), retroviral transduction, puromycin selection, maintained with EGF
The experiment in a line: Inhibitor activity on EGFR-dependent cell growth (CellTiter-Glo, 72 h), Ba/F3 EGFR WT. The following applies: read-out: BaF3 WT IC50. The method in brief: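 This growth assay used Ba/F3 cells that depend on wild-type EGFR and are kept in EGF without IL3. Compounds were made up as 10 mM DMSO stocks and diluted 3-fold over 10 points. 120 nL went onto 600 cells/well. After 72 hours, 40 μL CellTiter-Glo was added and luminescence read on EnVision after 30 min.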
(In ATP-based viability assays light output follows the ATP content of the culture.)

Assay [2] has as its target T2, EGFR exon 20 NPG Ins D770_N771 (Ba/F3 cells) (Homo sapiens, UniProt P00533, INS770NPG).
T2 construct: expressed in transfected cells; host or cells: Ba/F3 (murine pro-B cells), retroviral transduction, puromycin selection, IL3-independent pool
The experiment in a line: Inhibitor activity on EGFR-dependent cell growth (CellTiter-Glo, 72 h), Ba/F3 EGFR exon 20 NPG Ins. The following applies: read-out: BaF3 NPG IC50. The source says:
Example A. Inhibitor Activity on EGFR-Dependent Cell Growth
Cell lines are generated by transducing Ba/F3 cells with retroviruses containing vectors with EGFR WT, EGFR L858R, EGFR exon 19del, EGFR L858R/C797S, EGFR exon 20 NPG Ins D770_N771, EGFR exon 20 ASV Ins V769_D770, EGFR exon 20 SVD Ins D770_N771, or EGFR exon 20 FQEA Ins A763_V764 genes and a puromycin selection marker. Transduced cells are selected with puromycin for 7 days and are then be transferred into culture media without Interleukin 3 (IL3). EGFR WT cells are maintained with supplemental EGF. Surviving cells are confirmed to express EGFR by Western blot and maintained as a pool. The IC50 date were included in Table 6 and Table 7.
1.1 Cells are harvested from flask into cell culture medium and the cell number counted.
1.2 Cells are diluted with culture medium to the desired density and 40 μL of cell suspension is added into each well of 384-well cell culture plate and the seeding density is 800 (FQEA, exon 19del), 600 (WT, NPG, L858R/C797S), or 400 (ASV, SVD, L858R) cells/well.
2 Compound Preparation and Treatment
2.1 Test compounds are dissolved to 10 mM in a DMSO stock solution. 45 μL of stock solution is transferred to a 384 polypropylene plate (pp-plate). Perform 3-fold, 10-point dilution via transferring 15 μL compound into 30 μL DMSO using a TECAN (EVO200) liquid handler.
2.2 Spin plates at room temperature at 1,000 RPM for 1 minute.
2.3 Transfer 120 nL of diluted compound from compound source plate into the cell plate.
2.4 After compound treatment for 72 hours, perform CTG detection for compound treatment plates as described in “Detection” section.
3.1 Plates are removed from incubators and equilibrated at room temperature for 15 minutes.
3.2 Thaw the CellTiter Glo reagents and allow to equilibrate to room temperature before the experiment.
3.3 Add 40 μL of CellTiter-Glo reagent into each well (at 1:1 to culture medium). Then place the plates at room temperature for 30 min followed by reading on EnVision.
4.1 Inhibition activity is calculated following the formula below:
% Inhibition=100×(LumHC−LumSample)/(LumHC−LumLC) • where HC is obtained from cells treated with 0.1% DMSO only; and LC is obtained from culture medium only.
4.2 2. Calculate the IC50 by fitting the Curve using Xlfit (v5.3.1.3), equation 201.
Y=Bottom+(Top−Bottom)/(1+10^((Log IC50−X)*HillSlope))

For assay [3], the target named is T3, EGFR exon 20 ASV Ins V769_D770 (Ba/F3 cells) (Homo sapiens, UniProt P00533, INS769ASV).
T3 construct: expressed in transfected cells; host or cells: Ba/F3 (murine pro-B cells), retroviral transduction, puromycin selection, IL3-independent pool
The experiment in a line: Inhibitor activity on EGFR-dependent cell growth (CellTiter-Glo, 72 h), Ba/F3 EGFR exon 20 ASV Ins. The following applies: read-out: BaF3 ASV IC50. The method in brief: (§1)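 IC50s derive from a sigmoidal dose–response fit of CellTiter-Glo signal. The signal was normalised between […]-treated cells and cell-free medium. Ba/F3 mutant-EGFR cells, seeded at 400–800/well depending on the line, had 72 h of exposure to a 10-point, 3-fold compound series.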

Assay [4] concerns the target T4, EGFR exon 20 SVD Ins D770_N771 (Ba/F3 cells) (Homo sapiens, UniProt P00533, INS770SVD).
T4 construct: expressed in transfected cells; host or cells: Ba/F3 (murine pro-B cells), retroviral transduction, puromycin selection, IL3-independent pool
In words: Inhibitor activity on EGFR-dependent cell growth (CellTiter-Glo, 72 h), Ba/F3 EGFR exon 20 SVD Ins. The following applies: read-out: BaF3 SVD IC50. The method in brief: as §1

T4 sequence (P00533 with tags, fused parts or gaps INS770SVD): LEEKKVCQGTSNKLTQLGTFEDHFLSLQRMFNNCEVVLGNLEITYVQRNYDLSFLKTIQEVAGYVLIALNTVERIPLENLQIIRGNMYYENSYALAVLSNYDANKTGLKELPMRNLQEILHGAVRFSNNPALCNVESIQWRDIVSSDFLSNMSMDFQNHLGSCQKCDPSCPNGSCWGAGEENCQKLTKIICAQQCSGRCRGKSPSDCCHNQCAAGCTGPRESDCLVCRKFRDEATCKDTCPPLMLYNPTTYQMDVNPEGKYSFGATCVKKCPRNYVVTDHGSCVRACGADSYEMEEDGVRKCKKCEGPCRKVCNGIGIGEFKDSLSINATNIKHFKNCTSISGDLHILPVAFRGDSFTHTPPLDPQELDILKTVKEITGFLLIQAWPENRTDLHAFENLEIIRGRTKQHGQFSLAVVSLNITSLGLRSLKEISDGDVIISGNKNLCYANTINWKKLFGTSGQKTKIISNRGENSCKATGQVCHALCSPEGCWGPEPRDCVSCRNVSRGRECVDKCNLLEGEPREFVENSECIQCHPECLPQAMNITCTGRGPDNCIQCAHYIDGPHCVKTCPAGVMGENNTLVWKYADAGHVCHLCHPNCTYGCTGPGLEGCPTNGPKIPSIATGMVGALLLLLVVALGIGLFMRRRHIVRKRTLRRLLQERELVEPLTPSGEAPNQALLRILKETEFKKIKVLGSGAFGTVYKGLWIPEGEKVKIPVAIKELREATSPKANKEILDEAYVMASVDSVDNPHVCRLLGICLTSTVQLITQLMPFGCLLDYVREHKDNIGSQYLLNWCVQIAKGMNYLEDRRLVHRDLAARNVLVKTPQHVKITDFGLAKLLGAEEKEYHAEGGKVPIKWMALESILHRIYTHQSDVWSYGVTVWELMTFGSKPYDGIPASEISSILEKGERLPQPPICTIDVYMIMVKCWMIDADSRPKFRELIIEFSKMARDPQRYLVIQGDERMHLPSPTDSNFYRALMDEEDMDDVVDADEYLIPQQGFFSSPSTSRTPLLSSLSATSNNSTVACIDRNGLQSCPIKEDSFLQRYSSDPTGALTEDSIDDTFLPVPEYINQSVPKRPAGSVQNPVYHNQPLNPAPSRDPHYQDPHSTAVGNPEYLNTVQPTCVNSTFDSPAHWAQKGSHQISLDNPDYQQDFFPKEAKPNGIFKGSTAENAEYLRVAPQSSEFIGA
T3 sequence (P00533 with tags, fused parts or gaps INS769ASV): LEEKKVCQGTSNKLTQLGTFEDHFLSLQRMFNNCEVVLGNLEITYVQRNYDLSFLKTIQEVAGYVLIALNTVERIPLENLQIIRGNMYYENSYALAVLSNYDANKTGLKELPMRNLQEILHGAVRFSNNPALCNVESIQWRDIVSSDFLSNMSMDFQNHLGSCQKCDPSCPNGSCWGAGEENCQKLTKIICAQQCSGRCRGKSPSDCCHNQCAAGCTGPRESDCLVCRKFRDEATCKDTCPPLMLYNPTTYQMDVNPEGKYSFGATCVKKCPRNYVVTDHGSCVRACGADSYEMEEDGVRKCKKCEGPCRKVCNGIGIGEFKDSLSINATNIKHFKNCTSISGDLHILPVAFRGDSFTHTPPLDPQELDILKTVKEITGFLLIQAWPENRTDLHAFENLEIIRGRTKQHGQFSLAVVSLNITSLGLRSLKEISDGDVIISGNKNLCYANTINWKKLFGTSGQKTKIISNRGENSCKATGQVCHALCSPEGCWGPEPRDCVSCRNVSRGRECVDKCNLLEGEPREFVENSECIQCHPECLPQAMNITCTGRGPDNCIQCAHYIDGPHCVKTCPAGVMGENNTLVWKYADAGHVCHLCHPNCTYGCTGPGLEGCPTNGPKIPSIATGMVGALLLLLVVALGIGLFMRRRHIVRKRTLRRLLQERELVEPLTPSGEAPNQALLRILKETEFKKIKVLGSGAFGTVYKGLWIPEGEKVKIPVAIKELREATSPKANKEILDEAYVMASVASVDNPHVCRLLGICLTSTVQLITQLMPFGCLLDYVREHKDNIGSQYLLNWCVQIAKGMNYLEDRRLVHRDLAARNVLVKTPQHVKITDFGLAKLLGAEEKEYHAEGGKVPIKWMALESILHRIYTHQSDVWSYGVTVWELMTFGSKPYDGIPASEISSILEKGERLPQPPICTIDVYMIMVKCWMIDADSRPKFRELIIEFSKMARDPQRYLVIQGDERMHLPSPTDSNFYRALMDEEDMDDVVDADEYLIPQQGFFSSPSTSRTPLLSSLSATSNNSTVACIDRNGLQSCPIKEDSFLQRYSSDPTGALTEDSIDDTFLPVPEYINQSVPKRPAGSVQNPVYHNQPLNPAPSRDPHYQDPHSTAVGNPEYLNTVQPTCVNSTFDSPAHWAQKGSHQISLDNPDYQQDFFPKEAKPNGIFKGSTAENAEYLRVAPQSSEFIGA
T2 sequence (P00533 with tags, fused parts or gaps INS770NPG): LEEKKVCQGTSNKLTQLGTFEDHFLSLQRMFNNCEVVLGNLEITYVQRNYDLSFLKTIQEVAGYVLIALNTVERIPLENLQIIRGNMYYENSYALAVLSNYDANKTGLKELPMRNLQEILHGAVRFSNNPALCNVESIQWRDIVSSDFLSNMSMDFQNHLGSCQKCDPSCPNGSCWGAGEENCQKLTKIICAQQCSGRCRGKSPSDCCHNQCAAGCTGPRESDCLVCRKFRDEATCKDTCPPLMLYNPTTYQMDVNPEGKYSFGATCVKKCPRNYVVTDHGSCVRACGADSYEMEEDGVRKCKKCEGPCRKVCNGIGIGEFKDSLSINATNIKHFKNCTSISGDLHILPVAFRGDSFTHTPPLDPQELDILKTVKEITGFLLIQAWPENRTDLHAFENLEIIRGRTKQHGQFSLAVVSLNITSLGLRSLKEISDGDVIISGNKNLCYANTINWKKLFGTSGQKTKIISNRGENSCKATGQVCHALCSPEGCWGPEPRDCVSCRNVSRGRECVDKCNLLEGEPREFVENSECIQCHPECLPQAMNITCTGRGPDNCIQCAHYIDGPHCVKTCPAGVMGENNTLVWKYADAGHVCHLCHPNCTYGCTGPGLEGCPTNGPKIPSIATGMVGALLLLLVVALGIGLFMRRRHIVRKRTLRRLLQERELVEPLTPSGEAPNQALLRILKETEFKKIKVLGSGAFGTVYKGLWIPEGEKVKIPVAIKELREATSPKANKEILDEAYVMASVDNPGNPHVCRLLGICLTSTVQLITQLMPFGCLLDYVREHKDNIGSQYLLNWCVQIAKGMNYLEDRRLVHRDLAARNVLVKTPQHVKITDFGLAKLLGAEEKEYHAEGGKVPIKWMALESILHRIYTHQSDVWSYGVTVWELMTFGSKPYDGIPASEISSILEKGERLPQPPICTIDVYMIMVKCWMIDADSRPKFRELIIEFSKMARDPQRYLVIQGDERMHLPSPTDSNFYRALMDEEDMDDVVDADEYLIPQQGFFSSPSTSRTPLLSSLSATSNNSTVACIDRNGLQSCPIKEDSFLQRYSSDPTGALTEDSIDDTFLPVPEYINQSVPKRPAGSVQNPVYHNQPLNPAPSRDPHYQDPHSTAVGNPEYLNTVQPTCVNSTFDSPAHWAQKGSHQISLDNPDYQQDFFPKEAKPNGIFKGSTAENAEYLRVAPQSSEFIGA
T1 sequence (P00533 25-1210): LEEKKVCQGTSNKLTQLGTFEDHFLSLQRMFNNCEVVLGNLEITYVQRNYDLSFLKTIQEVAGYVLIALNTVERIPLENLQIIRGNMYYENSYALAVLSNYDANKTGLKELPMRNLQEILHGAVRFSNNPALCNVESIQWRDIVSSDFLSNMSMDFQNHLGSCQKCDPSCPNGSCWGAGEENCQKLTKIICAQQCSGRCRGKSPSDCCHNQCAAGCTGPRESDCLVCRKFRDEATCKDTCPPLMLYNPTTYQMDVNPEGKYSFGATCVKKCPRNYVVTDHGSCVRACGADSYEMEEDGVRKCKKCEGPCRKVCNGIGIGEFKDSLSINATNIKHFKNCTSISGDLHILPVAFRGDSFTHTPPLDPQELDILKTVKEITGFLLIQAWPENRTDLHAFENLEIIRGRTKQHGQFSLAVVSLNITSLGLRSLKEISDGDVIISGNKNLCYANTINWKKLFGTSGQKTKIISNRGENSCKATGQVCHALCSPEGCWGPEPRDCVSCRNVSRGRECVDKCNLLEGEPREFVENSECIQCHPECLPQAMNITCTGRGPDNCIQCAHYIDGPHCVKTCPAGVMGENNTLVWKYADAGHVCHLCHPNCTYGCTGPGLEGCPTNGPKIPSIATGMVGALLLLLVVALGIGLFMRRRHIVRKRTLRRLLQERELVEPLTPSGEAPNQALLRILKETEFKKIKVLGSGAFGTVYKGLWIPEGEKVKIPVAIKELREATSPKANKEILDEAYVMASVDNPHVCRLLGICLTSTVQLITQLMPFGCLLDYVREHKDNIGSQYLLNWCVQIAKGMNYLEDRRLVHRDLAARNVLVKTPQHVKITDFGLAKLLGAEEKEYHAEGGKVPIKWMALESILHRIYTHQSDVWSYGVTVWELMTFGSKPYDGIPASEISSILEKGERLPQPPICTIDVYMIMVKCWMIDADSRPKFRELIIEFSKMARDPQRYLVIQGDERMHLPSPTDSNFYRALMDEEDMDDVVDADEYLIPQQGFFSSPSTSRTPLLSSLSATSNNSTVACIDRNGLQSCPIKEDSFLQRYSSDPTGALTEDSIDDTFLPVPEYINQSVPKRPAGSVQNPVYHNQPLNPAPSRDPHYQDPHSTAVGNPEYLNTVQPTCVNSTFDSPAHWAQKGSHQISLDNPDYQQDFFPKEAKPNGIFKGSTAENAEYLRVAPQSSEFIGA

In the case of `C=CC(=O)N1CCC2(CC1)CNC(=O)c1c2[nH]c(-c2ccncc2F)c1Nc1ccc(F)c(Cl)c1` [Compound 587, 3′-[(3-chloro-4-fluorophenyl)amino]-2′-(3-fluoropyridin-4-yl)-1-(prop-2-enoyl)-5′,6′-dihydro-1′H-spiro[piperidine-4,7′-pyrrolo[3,2-c]pyridin]-4′-one], the IC50 in assay [1] was 100 to 1000 nM; in assay [2], < 100 nM; in assay [3], < 100 nM; in assay [4], < 100 nM.
Consider `COc1c(Cl)cccc1Nc1c(-c2ccnc(-c3ccnnc3)n2)[nH]c2c1C(=O)NCC2` [compound 542, 3-[(3-chloro-2-methoxyphenyl)amino]-2-[2-(pyridazin-4-yl)pyrimidin-4-yl]-1H,5H,6H,7H-pyrrolo[3,2-c]pyridin-4-one], for which the IC50 was > 1000 nM in assay [1], 100 to 1000 nM in assay [2], > 1000 nM in assay [3] and > 1000 nM in assay [4].
As for `COc1c(F)cccc1Nc1c(-c2ccncn2)[nH]c2c1C(=O)NC[C@@H]2C[C@@H]1COCCO1` [Compound 529, (7S)-7-[(2R)-1,4-dioxan-2-ylmethyl]-3-[(3-fluoro-2-methoxyphenyl)amino]-2-(pyrimidin-4-yl)-1H,5H,6H,7H-pyrrolo[3,2-c]pyridin-4-one], the IC50 in assay [1] is > 1000 nM; in assay [2], 100 to 1000 nM; in assay [3], 100 to 1000 nM; in assay [4], 100 to 1000 nM.
As for `C=CC(=O)N1CCC2(CC1)CNC(=O)c1c2[nH]c(-c2ccnc(C)n2)c1Nc1cc(F)cc(Cl)c1OC` [compound 642], the IC50 is 100 to 1000 nM in assay [1], < 100 nM in assay [2], < 100 nM in assay [3] and < 100 nM in assay [4].
Consider `COc1c(Cl)cccc1Nc1c(-c2ccnc(Nc3nnn(C)c3C)n2)[nH]c2c1C(=O)NCC2` [compound 607, 3-[(3-chloro-2-methoxyphenyl)amino]-2-{2-[(1,5-dimethyl-1,2,3-triazol-4-yl)amino]pyrimidin-4-yl}-1H,5H,6H,7H-pyrrolo[3,2-c]pyridin-4-one], for which the IC50 in assay [1], in assay [2], in assay [3] and in assay [4] was > 1000 nM in each case.
As for `COc1c(F)cccc1Nc1c(-c2ccnc3c(N)noc23)[nH]c2c1C(=O)NCC2` [compound 523, 2-{3-amino-[1,2]oxazolo[4,5-b]pyridin-7-yl}-3-[(3-fluoro-2-methoxyphenyl)amino]-1H,5H,6H,7H-pyrrolo[3,2-c]pyridin-4-one; trifluoroacetic acid], the IC50 in assay [1] is 100 to 1000 nM; in assay [2], < 100 nM; in assay [3], 100 to 1000 nM; in assay [4], < 100 nM.
Take `C=CC(=O)NCC[C@H]1CNC(=O)c2c1[nH]c(-c1ccnc(C)n1)c2Nc1cccc(Cl)c1OC` [compound 653]: the IC50 in assay [1] was > 1000 nM; in assay [2], 100 to 1000 nM; in assay [3], 100 to 1000 nM; in assay [4] it was 100 to 1000 nM.
Take `C=CC(=O)N1CCC2(CC1)CNC(=O)c1c2[nH]c(-c2ccncc2F)c1Nc1ccc(Cl)c(Cl)c1` [Compound 590, 3′-[(3,4-dichlorophenyl)amino]-2′-(3-fluoropyridin-4-yl)-1-(prop-2-enoyl)-5′,6′-dihydro-1′H-spiro[piperidine-4,7′-pyrrolo[3,2-c]pyridin]-4′-one]: the IC50 in assay [1] was > 1000 nM; in assay [2], 100 to 1000 nM; in assay [3] it was > 1000 nM; in assay [4], > 1000 nM.
Take `C=CC(=O)N1CCC2(CC1)CNC(=O)c1c2[nH]c(-c2ccncn2)c1Nc1cccc(Cl)c1OC` [Compound 478, 3′-[(3-chloro-2-methoxyphenyl)amino]-1-(prop-2-enoyl)-2′-(pyrimidin-4-yl)-5′,6′-dihydro-1′H-spiro[piperidine-4,7′-pyrrolo[3,2-c]pyridin]-4′-one]: the IC50 in assay [1], in assay [2], in assay [3] and in assay [4] was < 100 nM each time.
With `COc1c(F)cccc1Nc1c(-c2ccnc(Nc3cnnn3C)n2)[nH]c2c1C(=O)NCC2` [compound 591, 3-[(3-fluoro-2-methoxyphenyl)amino]-2-{2-[(3-methyl-1,2,3-triazol-4-yl)amino]pyrimidin-4-yl}-1H,5H,6H,7H-pyrrolo[3,2-c]pyridin-4-one], the IC50 in assay [1] was 100 to 1000 nM; in assay [2], < 100 nM; in assay [3], < 100 nM; in assay [4] it was < 100 nM.
On to `C=CC(=O)NCC[C@@H]1CNC(=O)c2c1[nH]c(-c1ccnc(C)n1)c2Nc1cccc(Cl)c1OC` [compound 654], for which the IC50 in assay [1] was 100 to 1000 nM; in assay [2], < 100 nM; in assay [3], < 100 nM; in assay [4] it was < 100 nM.
For the molecule `COc1c(F)cccc1Nc1c(-c2ccnc(Nc3nnn(C)c3C)n2)[nH]c2c1C(=O)NCC2` [compound 608, 2-{2-[(1,5-dimethyl-1,2,3-triazol-4-yl)amino]pyrimidin-4-yl}-3-[(3-fluoro-2-methoxyphenyl)amino]-1H,5H,6H,7H-pyrrolo[3,2-c]pyridin-4-one], the IC50 in assay [1], in assay [2], in assay [3] and in assay [4] was > 1000 nM in each case.
For the molecule `C=CC(=O)N1CCC2(CC1)CNC(=O)c1c2[nH]c(-c2ccncc2F)c1Nc1ccc(Cl)c(F)c1` [Compound 588, 3′-[(4-chloro-3-fluorophenyl)amino]-2′-(3-fluoropyridin-4-yl)-1-(prop-2-enoyl)-5′,6′-dihydro-1′H-spiro[piperidine-4,7′-pyrrolo[3,2-c]pyridin]-4′-one], the IC50 in assay [1], in assay [2], in assay [3] and in assay [4] was < 100 nM each time.
Consider `C=CC(=O)N1CCC(Oc2nc3c(-c4[nH]c5c(c4Nc4cccc(F)c4OC)C(=O)NCC5)ccnc3cc2OC)CC1` [Compound 554, 3-[(3-fluoro-2-methoxyphenyl)amino]-2-(7-methoxy-6-{[1-(prop-2-enoyl)piperidin-4-yl]oxy}-1,5-naphthyridin-4-yl)-1H,5H,6H,7H-pyrrolo[3,2-c]pyridin-4-one], for which the IC50 in assay [1], in assay [2], in assay [3] and in assay [4] was < 100 nM in each case.
With `COc1c(Cl)cccc1Nc1c(-c2ccnc(Nc3ccn(CC(C)(C)O)n3)n2)[nH]c2c1C(=O)NCC2` [compound 537, 3-[(3-chloro-2-methoxyphenyl)amino]-2-(2-{[1-(2-hydroxy-2-methylpropyl)pyrazol-3-yl]amino}pyrimidin-4-yl)-1H,5H,6H,7H-pyrrolo[3,2-c]pyridin-4-one], the IC50 is 100 to 1000 nM in assay [1], < 100 nM in assay [2], < 100 nM in assay [3] and < 100 nM in assay [4].
Regarding `C=CC(=O)N1CCC2(CC1)CNC(=O)c1c2[nH]c(-c2ccncc2F)c1Nc1cccc(Cl)c1F` [Compound 586, 3′-[(3-chloro-2-fluorophenyl)amino]-2′-(3-fluoropyridin-4-yl)-1-(prop-2-enoyl)-5′,6′-dihydro-1′H-spiro[piperidine-4,7′-pyrrolo[3,2-c]pyridin]-4′-one], the IC50 in assay [1] was 100 to 1000 nM; in assay [2] it was < 100 nM; in assay [3], < 100 nM; in assay [4], < 100 nM.

The values above are taken from patent US20240101576A1, “HETEROCYCLIC INHIBITORS OF EGFR AND/OR HER2, FOR USE IN THE TREATMENT OF CANCER” (Scorpion Therapeutics, Inc., priority 2020, published 2024).
